EC50 and CC50 data for 24 compounds are collected here from US20230091047A1 (priority 2019, published 2023).

Series [1] deals with HBV (HepG2.117 cell line, inducibly HBV producing). The experiment in a line: Anti-HBV activity: intracellular HBV DNA by real-time PCR in HepG2.117 cells after 3 days of treatment. The format is cell-based, hepatitis B virus. A digest of the protocol: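 Read-out is intracellular HBV DNA, measured by real-time PCR using HBV-specific primers and probe. Cells were stable, inducible HBV-producing HepG2.117 (Tet-off). Serially diluted compound was applied for 3 days after replication was induced.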

The nature of series [2]: in vitro. The series is classed as cell-based. The conditions noted are these: human, HepG2 or HepG2.117 cells, mean value; for CC50 at 4 days: 4-days incubation (values marked with *). A digest of the protocol: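 Luminescent ATP quantitation served as the viability endpoint following a 3- or 4-day incubation with test compounds.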
[3] abbreviates: Hepatitis B virus, HepG2.117, 72 h, HepG2.117 cells, intracellular HBV DNA by real-time PCR, 3 days of treatment, mean value; read-out: EC50 (μM, mean value).
Setting [4] is: ATPlite, 3-days incubation (not marked with *).
Setting [5] is: Hepatitis B virus, HepG2.117, 72 h, HepG2.117 cells, 3 days of treatment, intracellular HBV DNA by real-time PCR; mean value; read-out: EC50 (μM, mean value).
Where [6] appears, read: 3-days incubation (unmarked values), ATPlite viability.

Read-outs that look alike come from different tables or passages of the source.

On to `CNC(=O)c1ccc(-n2c(N[C@@H](C)c3ccc4[nH]cnc4c3)nc3c(c2=O)C[C@@H](C)N(C(=O)c2ccc(Cl)c(Cl)c2)C3)cc1` (single isomer, unassigned) [Compound C647b], for which the EC50 (usually the concentration needed to bring the measured effect to its halfway point) in series [1] (setting [3]) is over 2.5 µM. For the same compound, in series [2] (setting [4]), the half-maximal cytotoxic concentration (CC50) (usually the concentration giving 50% cytotoxicity) at 3 days was over 50 µM.

For `CNC(=O)c1ccc(-n2c(N[C@H](C)c3ccc(C(F)(F)F)c(F)c3)nc3c(c2=O)C[C@@H](C)N(C(=O)c2ccc(Cl)c(Cl)c2)C3)cc1` (single isomer, unassigned) [Compound C659a], the EC50 in series [1] (setting [3]) was determined as 0.12 µM. This compound also yielded a CC50 at 3 days in series [2] (setting [4]) of 6.8 µM.

For the compound `CNC(=O)c1ccc(-n2c(N[C@H](C)c3cccc(C(F)F)c3)nc3c(c2=O)C[C@@H](C)N(C(=O)c2ccc(Cl)c(Cl)c2)C3)cc1` (single isomer, unassigned) [Compound C660a], in series [1] (setting [3]), the EC50 turned out to be 1.3 µM. In series [2] (setting [4]), this compound registered a half-maximal cytotoxic concentration (CC50) at 3 days of over 50 µM.

In the case of `CNC(=O)c1ccc(-n2c(N[C@@H](C)c3cccc(C(F)F)c3)nc3c(c2=O)C[C@@H](C)N(C(=O)c2ccc(Cl)c(Cl)c2)C3)cc1` (single isomer, unassigned) [Compound C660b], in series [1] (setting [3]), the concentration for a half-maximal effect (EC50) was found to be 0.32 µM. This compound registered a 50% cytotoxic concentration (CC50) at 3 days in series [2] (setting [4]) of 27.5 µM.

Turning to `CNC(=O)c1ccc(-n2c(N[C@H](C)c3ccc(C(F)(F)F)c(Cl)c3)nc3c(c2=O)C[C@@H](C)N(C(=O)c2ccc(Cl)c(Cl)c2)C3)cc1` (single isomer, unassigned) [Compound C664a], the EC50 in series [1] (setting [3]) is 0.13 µM. In series [2] (setting [4]), the midpoint of cytotoxicity, the CC50 at 3 days, lay at 6.7 µM.

With `CNC(=O)c1ccc(-n2c(N[C@@H](C)c3ccc(C(F)(F)F)c(Cl)c3)nc3c(c2=O)C[C@@H](C)N(C(=O)c2ccc(Cl)c(Cl)c2)C3)cc1` (single isomer, unassigned) [Compound C664b], the EC50 in series [1] (setting [3]) is over 2.5 µM. This compound also returned a CC50 at 3 days in series [2] (setting [4]) of over 50 µM.

For `CNC(=O)c1ccc(-n2c(N[C@H](C)c3cnccn3)nc3c(c2=O)C[C@@H](C)N(C(=O)c2ccc(Cl)c(C(F)(F)F)c2)C3)cc1` (single isomer, unassigned) [Compound C665a], in series [1] (setting [3]), the EC50 turned out to be 0.49 µM. In series [2] (setting [4]), this compound displayed a CC50 at 3 days of over 50 µM.

As for `CNC(=O)c1ccc(-n2c(N[C@@H](C)c3cnccn3)nc3c(c2=O)C[C@@H](C)N(C(=O)c2ccc(Cl)c(C(F)(F)F)c2)C3)cc1` (single isomer, unassigned) [Compound C665b], the EC50 in series [1] (setting [3]) turned out to be 0.65 µM. The compound further returned a 50% cytotoxic concentration (CC50) at 3 days in series [2] (setting [4]) of over 50 µM.

`CNC(=O)c1ccc(-n2c(NC(C)C)nc3c(c2=O)C[C@@H](C)N(C(=O)c2ccc(Cl)c(C(F)(F)F)c2)C3)c(C(F)F)c1` (single isomer, unassigned) [Compound C669a]: the half-maximal effective concentration (EC50) in series [1] (setting [3]) was found to be 0.02 µM. Besides, the CC50 at 3 days in series [2] (setting [4]) turned out to be 29.8 µM.

As to `CC(C)Nc1nc2c(c(=O)n1-c1ccc(C(=O)NC3CC3)cc1Cl)C[C@@H](C)N(C(=O)c1ccc(Cl)c(C(F)(F)F)c1)C2` (single isomer, unassigned) [Compound C673a], the EC50 in series [1] (setting [3]) is 0.03 µM. Also, the CC50 at 3 days in series [2] (setting [4]) was over 25 µM.

`CNC(=O)c1ccc(-n2c(N[C@@H](C)C3CC3)nc3c(c2=O)C[C@@H](C)N(C(=O)c2ccc(Cl)c(C(F)(F)F)c2)C3)c(Cl)c1` (single isomer, unassigned) [Compound C676a]: the EC50 in series [1] (setting [3]) came out at 0.03 µM. For the same compound, the CC50 at 3 days in series [2] (setting [4]) is over 50 µM.

Consider `CNC(=O)c1ccc(-n2c(NC(C)(C)C)nc3c(c2=O)C[C@@H](C)N(C(=O)c2ccc(Cl)c(C(F)(F)F)c2)C3)c(Cl)c1` (single isomer, unassigned) [Compound C677a], for which the EC50 in series [1] (setting [5]) was 0.02 µM. In series [2] (setting [6]), this compound had a half-maximal cytotoxic concentration (CC50) at 3 days of over 50 µM.

Regarding `CNC(=O)c1ccc(-n2c(NC(C)(C)C)nc3c(c2=O)C[C@@H](C)N(C(=O)c2ccc(Cl)c(C(F)(F)F)c2)C3)c(Cl)c1` (single isomer, unassigned) [Compound C677b], the EC50 in series [1] (setting [3]) came to 0.02 µM. This compound also had a CC50 at 3 days in series [2] (setting [4]) of 24 µM.

On to `COc1cc(C(=O)NC2CC2)ccc1-n1c(NC(C)C)nc2c(c1=O)C[C@@H](C)N(C(=O)c1ccc(Cl)c(C(F)(F)F)c1)C2` (single isomer, unassigned) [Compound C678a], for which the EC50 in series [1] (setting [3]) is 0.04 µM. The compound further returned a 50% cytotoxic concentration (CC50) at 3 days in series [2] (setting [4]) of 43 µM.

In the case of `CNC(=O)c1ccc(-n2c(NC(C)C)nc3c(c2=O)C[C@@H](C)N(C(=O)c2ccc(Cl)c(C(F)F)c2)C3)c(Cl)c1` (single isomer, unassigned) [Compound C685a], in series [1] (setting [3]), the half-maximal effective concentration (EC50) turned out to be 0.03 µM. In series [2] (setting [4]), this compound had a CC50 at 3 days of over 50 µM.

As to `CNC(=O)c1ccc(-n2c(N[C@H](C)c3ccc(F)cc3F)nc3c(c2=O)C[C@@H](C)N(C(=O)c2ccc(Cl)c(Cl)c2)C3)cc1` (single isomer, unassigned) [Compound C689a], the concentration for a half-maximal effect (EC50) in series [1] (setting [3]) amounted to 0.2 µM. The half-maximal cytotoxic concentration (CC50) at 3 days in series [2] (setting [4]) came to 16.7 µM.

In the case of `CNC(=O)c1ccc(-n2c(N[C@@H](C)c3ccc(F)cc3F)nc3c(c2=O)C[C@@H](C)N(C(=O)c2ccc(Cl)c(Cl)c2)C3)cc1` (single isomer, unassigned) [Compound C689b], in series [1] (setting [3]), the EC50 amounted to 0.46 µM. Also, the CC50 at 3 days in series [2] (setting [4]) was 27.3 µM.

Turning to `CNC(=O)c1ccc(-n2c(N3CC4CC3C4)nc3c(c2=O)C[C@@H](C)N(C(=O)c2ccc(Cl)c(C(F)(F)F)c2)C3)c(Cl)c1` (single isomer, unassigned) [Compound C701a], the EC50 in series [1] (setting [5]) came out at 0.04 µM. Moreover, in series [2] (setting [6]), the CC50 at 3 days was over 50 µM.

On to `COc1ccc(CNc2nc3c(c(=O)n2-c2ccccc2OC)CCN(C(=O)c2ccc(Cl)c(Cl)c2)C3)cc1` [Compound C1, 7-(3,4-dichlorobenzoyl)-3-(2-methoxyphenyl)-2-{[(4-methoxyphenyl)methyl]amino}-5,6,7,8-tetrahydropyrido[3,4-d]pyrimidin-4(3H)-one], for which, in series [1] (setting [5]), the half-maximal effective concentration (EC50) is 1.47 µM. Moreover, the CC50 at 3 days in series [2] (3-days incubation (unmarked values), ATPlite) is over 50 µM.

With `COc1ccc(CNc2nc3c(c(=O)n2-c2ccccc2OC)CCN(C(=O)c2cc4ccccc4[nH]2)C3)cc1` [Compound C2, 7-(1H-indole-2-carbonyl)-2-((4-methoxybenzyl)amino)-3-(2-methoxyphenyl)-5,6,7,8-tetrahydropyrido[3,4-d]pyrimidin-4(3H)-one], in series [1] (setting [5]), the EC50 came to 1.75 µM. The 50% cytotoxic concentration (CC50) at 4 days in series [2] (ATPlite) was over 50 µM.

On to `COc1ccc(CNc2nc3c(c(=O)n2-c2ccccc2OC)CCN(C(=O)c2ccc(F)c(Cl)c2)C3)cc1` [Compound C3, 7-(3-chloro-4-fluorobenzoyl)-3-(2-methoxyphenyl)-2-{[(4-methoxyphenyl)methyl]amino}-5,6,7,8-tetrahydropyrido[3,4-d]pyrimidin-4(3H)-one], for which the concentration for a half-maximal effect (EC50) in series [1] (setting [5]) was 8.48 µM. Moreover, the 50% cytotoxic concentration (CC50) at 4 days in series [2] (ATPlite) was over 50 µM.

`COc1ccccc1-n1c(SC)nc2c(c1=O)CCN(C(=O)c1ccc(Cl)c(Cl)c1)C2` [Compound C4, 7-(3,4-dichlorobenzoyl)-3-(2-methoxyphenyl)-2-(methylsulfanyl)-5,6,7,8-tetrahydropyrido[3,4-d]pyrimidin-4(3H)-one]: the 50% effective concentration (EC50) in series [1] (setting [5]) was 1.79 µM. Also, the midpoint of cytotoxicity in series [2] (ATPlite), the CC50 at 4 days, lay at 36.8 µM.

Turning to `COc1ccccc1-n1c(NCc2ccncc2)nc2c(c1=O)CCN(C(=O)c1ccc(Cl)c(Cl)c1)C2` [Compound C5, 7-(3,4-dichlorobenzoyl)-3-(2-methoxyphenyl)-2-{[(Pyridin-4-yl)methyl]amino}-5,6,7,8-tetrahydropyrido[3,4-d]pyrimidin-4(3H)-one], the concentration giving a half-maximal response (EC50) in series [1] (setting [5]) worked out at 5.35 µM. Also, the CC50 at 4 days in series [2] (ATPlite) was over 50 µM.

On to `CSc1nc2c(c(=O)[nH]1)CCN(C(=O)c1ccc(Cl)c(Cl)c1)C2` [Compound C6, 7-(3,4-dichlorobenzoyl)-2-(methylsulfanyl)-5,6,7,8-tetrahydropyrido[3,4-d]pyrimidin-4(3H)-one], for which, in series [1] (setting [5]), the EC50 was 16 µM. In series [2] (ATPlite), this compound yielded a half-maximal cytotoxic concentration (CC50) at 4 days of over 50 µM.
